Publication PMC4459685, “Design and characterization of a new peptide vector for short interfering RNA delivery” (Journal of Nanobiotechnology, 2015)

Tests used:
CHO-K1 cells [1] = assay: MTT cytotoxicity assay; format: cell-based, Chinese hamster; conditions: siRNA 50 nM, 4 h Opti-MEM then 48 h, molar ratio 10/1
Procedure: The cytotoxicity of peptide-siRNA complexes was determined by the MTT assay. In brief, cells were seeded at 5,000 cells/well in clear, flat-bottomed, 96-well plates (Costar) 24 h before treatment. After being washed, 100 μl of Opti-MEM that contained peptide-siRNA complexes at different molar ratios was added to the wells and incubated for 4 h. Thereafter, 50 μl of 30% serum containing medium was added, and the cytotoxicity of the relevant reagents was determined by the MTT assay after 48 h. The absorbance at 570 nm was read on a plate reader (FLUOstar OPTIMA, BMG, Germany). The background absorbance of the multiwell plates at 690 nm was determined and subtracted from the 570 nm measurement. The results obtained from triplicate wells were averaged and normalized to the value obtained from the non-treated cells.
Figure 7 Cell viability results of CHO-K1 cells treated with naked Lipofectamine 2000 or GL1, and the complexes with siRNA (50 nM) at different molar ratios. NT non-treated, MR peptide/siRNA molar ratio, Lipo Lipofectamine 2000. Results are expressed as mean ± standard deviation (n = 3). *P value < 0.05, the cell viability after GL1 treatment is statistically significant than that after Lipo treatment.

CHO-K1 cells [2] = assay: FACS cellular uptake of Cy3-labeled GAPDH siRNA; format: cell-based, Chinese hamster; conditions: Cy3-labeled GAPDH siRNA 100 nM, 4 h
Procedure: The uptake of Cy3-labeled siRNA into the CHO-K1 cells was quantified with a BD FACSVantage SE Cell Sorter flow cytometry (BD Biosciences, United States). CHO-K1 cells were plated at a density of 50,000 cells per well and incubated for 24 h in a 24-well flat-bottom plate. The medium was replaced with GL1-siRNA complexes and control samples in OPTI-MEM (Invitrogen) or F12-K supplemented with 10% FBS with a siRNA concentration of 100 nM. After 4 h of incubation, the cells were rinsed with phosphate buffered saline (PBS) and washed with heparin (10 U/ml). After, trypsin–EDTA was added to detach the cells from the plate. The cells were re-suspended in 4% paraformaldehyde (PFA) and ready for quantitative analysis.
Figure 5 a Fluorescence microscope image of GL1-siRNA complexes at molar ratio 40/1 (magnification 40×). The red fluorescence indicated Cy3 labeled siRNA, blue fluorescence represented DAPI stained nuclei. […] Non-treated sample was negative control; Lipo-siRNA complexes were positive control. Cy3 labeled GAPDH siRNA was used here. siRNA concentration was 100 nM in both experiments. NT non-treated, MR peptide/siRNA molar ratio, Lipo Lipofectamine 2000. Results are expressed as mean ± standard deviation (n = 3).

siRNA [3] = assay: Isothermal titration calorimetry, titrating siRNA with GL1; format: binding
Procedure: The isothermal titration calorimetry experiments were conducted using a Nano-ITC calorimeter (TA Instruments). A 500 μM GL1 peptide solution and a 10 μM siRNA solution were both prepared in RNase-free water. All of the samples were degassed in a degassing station (TA Instruments) prior to the experiments. RNase-free water was placed in the ITC reference cell. For each titration, 2 μl of the peptide in a pipette rotating at 250 rpm was injected into the siRNA solution in the sample cell of the calorimeter, which was equilibrated to 25°C, with an interval of 300 s between injections. The heat of dilution was measured by titrating the GL1 solution into RNase-free water and was later subtracted from the sample measurement. The data were analyzed using NanoAnalyze software v.3.1.2.
The ability of GL1 to interact with siRNA was investigated by gel electrophoresis. Binding between peptide and siRNA prevented RNA from being stained by EtBr. […] At a slightly higher molar ratio 15/1, no free siNRA was detected on the agarose gel. […] This direct binding between cationic peptide and anionic siRNA would be initiated via electrostatic interactions. The formation of GL1-siRNA complexes and the thermodynamic parameters associated with the binding between peptide and siRNA was further investigated using isothermal titration calorimetry by titrating the siRNA with GL1. The heat exchange during the titration of siRNA by GL1 (in RNase-free water) was detected by the machine and output as raw data. By fitting the raw data (upper panel of Figure 2) to a single-site model (lower panel of Figure 2), the thermodynamic parameters during the interaction were obtained and listed in Table 1.
Figure 2 Calorimetric titration of siRNA with GL1 at 25°C in RNasefree water at pH 6. a Corrected thermogram of calorimetric titration of siRNA with GL1. b Binding analysis of siRNA with GL1 by fitting the raw data with an independent model. GL1 concentration was 500 μM and siRNA concentration was 10 μM.

eGFP siRNA = assay: Agarose gel-shift assay of peptide-siRNA complex formation; format: binding; conditions: 1.2% agarose gel, 300 ng eGFP siRNA
Procedure: The GL1-siRNA complexes in RNase-free water were made with 300 ng of eGFP siRNA. The samples of siRNA alone and GL1-siRNA complexes at molar ratios (peptide/siRNA) ranging from 1/1 to 80/1 were electrophoresed on a 1.2% wt/vol agarose gel in 1× TBE at 55 V for 1 h. The ethidium bromide-stained siRNA was visualized on an ultraviolet transilluminator with a camera.
Figure 1 Binding ability of siRNA to GL1 studied by agarose gel-shift assay The formed GL1-siRNA complexes, stained with ethidium bromide, were investigated by electrophoresis on agarose gel (1.2% wt/vol). siRNAs, targeting eGFP genes, were complexed with GL1 at a series of molar ratios from 1/1 to 80/1. Lane 1 was siRNA control, and lanes 2–8 indicated correlated molar ratios. The amount of siRNA was 300 ng.

siRNA [4] = conditions: cited from earlier work
Text: Here, an amphipathic, cationic peptide GL1 was designed and investigated. Structurally, GL1 has dispersed cationic amino acids along the sequence, which differs from the arginine rich peptide R9, R9-hLF, and Tat. The peptide MPG and MPG-like peptides consist of a hydrophobic domain and a hydrophilic domain which contributes to their amphipathic property; while PF6 and PF14 incorporated a stearyl moiety in their sequences to improve amphiphilicity. However, peptide GL1 has hydrophilic and hydrophobic amino acids dispersed along the sequence, which leads to its amphipathicity ...

GL1 peptide = biological target: T1, GL1 peptide (synthetic (designed)); assay: EMSA (agarose gel shift, EtBr); peptide/siRNA molar ratios 1/1 to 80/1; no free siRNA at 15/1, strongly reduced at 10/1; 300 ng siRNA; ITC: RNase-free water, pH 6, 25 C, 500 uM GL1 into 10 uM siRNA; gel shift: 1.2% agarose, EtBr, 20 min incubation, buffer not given; conditions: tags: N-terminal acetyl, C-terminal amide
T1 chain: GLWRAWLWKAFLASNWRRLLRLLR

[5] = ITC, 500 μM GL1 titrated into 10 μM siRNA, RNase-free water pH 6, 25°C

## Ac-GLWRAWLWKAFLASNWRRLLRLLR-NH2 [GL1]
CHO-K1 cells [1]
  toxicity: did not cause toxicity
CHO-K1 cells [2]; F12-K with 10% FBS, molar ratio 20/1, mean n = 3
  cellular uptake of siRNA: 75%
CHO-K1 cells [2]; F12-K with 10% FBS, molar ratio 40/1, mean n = 3
  cellular uptake of siRNA: 84%
CHO-K1 cells [2]; OPTI-MEM without serum, molar ratio 20/1, mean n = 3
  cellular uptake of siRNA: 95%
CHO-K1 cells [2]; OPTI-MEM without serum, molar ratio 40/1, mean n = 3
  cellular uptake of siRNA: 95%
CHO-K1 cells [2]; in the presence of serum, molar ratio not stated at the place, mean n = 3
  cellular uptake of siRNA: ~ 84%
CHO-K1 cells [2]; serum free, molar ratio not stated at the place, mean n = 3
  cellular uptake of siRNA: ~ 95%
siRNA [3]; [5]
  n (molar stoichiometry, mol GL1 per mol siRNA): 7.16
  ΔH (enthalpy): -4.472 kcal/mol
  ΔS: 64.56 J/(mol K)
siRNA [3]; ITC, 500 μM GL1 titrated into 10 μM siRNA, RNase-free water pH 6, 25°C, read-out: Kd (dissociation constant)
  Kd: 224 nM
siRNA [3]; calculated with ΔG = ΔH − TΔS, ITC at 25°C
  ΔG: -9.068 kcal/mol
eGFP siRNA
  minimal peptide/siRNA molar ratio for siRNA delivery / complex formation: around 10/1
eGFP siRNA; ethidium bromide, molar ratios 1/1 to 80/1
  peptide/siRNA molar ratio at which no free siRNA is detected (all free siRNA encapsulated): 15/1

## TP10
siRNA [4]
  molar ratio required to encapsulate all the free siRNA: 50/1

B1: eGFP siRNA (dsRNA)
RNA 1: GACGUAAACGGCCACAAGUUC
RNA 2: ACUUGUGGCCGUUUACGUCGC
GL1 peptide
  binding result: binds
